22 compounds from patent US8173689B2 (Novartis AG, priority 2006, dated 2012) can be followed below.

A word on the inhibition: it is the relative decrease from the control value, in per cent.

Assay [1] addresses T1, cytoplasmic domain of the human CSF-1R (Homo sapiens, UniProt P07333).
T1 construct: Recombinant protein corresponding to the cytoplasmic domain of the human CSF-1R; purchased Invitrogen Corporation, Carlsbad, Calif; PV3249
T1 sequence (P07333 539-972 limits assumed): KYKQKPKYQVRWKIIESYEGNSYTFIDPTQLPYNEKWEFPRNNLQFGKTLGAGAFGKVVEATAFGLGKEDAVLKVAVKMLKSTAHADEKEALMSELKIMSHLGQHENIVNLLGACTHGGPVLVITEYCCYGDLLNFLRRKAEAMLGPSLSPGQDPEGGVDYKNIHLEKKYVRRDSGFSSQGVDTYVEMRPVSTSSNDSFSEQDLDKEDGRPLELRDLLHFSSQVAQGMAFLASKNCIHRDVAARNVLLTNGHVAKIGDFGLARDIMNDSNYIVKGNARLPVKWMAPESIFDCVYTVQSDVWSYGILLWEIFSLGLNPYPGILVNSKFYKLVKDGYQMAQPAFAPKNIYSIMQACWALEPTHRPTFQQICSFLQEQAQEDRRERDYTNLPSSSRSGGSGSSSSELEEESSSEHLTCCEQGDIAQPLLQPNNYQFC
Description: In vitro kinase assay for colony stimulating factor-1 receptor (AlphaScreen). The settings on record: tested at about 1 μM; compounds of Table 3; read-out: CSF-1R percent inhibition. The format is biochemical. An outline of the steps: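 Tyrosine phosphorylation of a peptide substrate by 4 nM recombinant cytoplasmic-domain enzyme is measured at 1 μM ATP in Mn2+/Mg2+-containing Hepes buffer, pH 7.5. Detection uses PT66 AlphaScreen beads after overnight incubation.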
A general note: Bead proximity is the source of the signal in Alpha formats.

In the next assay the target is T2, kinase domain of cKIT (Homo sapiens, UniProt P10721).
T2 construct: The kinase domain of cKIT was assayed in 50 mM Hepes; purchased Upstate 14-559
Description: Inhibition of cKIT kinase signaling in an in vitro biochemical assay (alphascreen). To be noted: tested at about 1 μM; compounds of Table 3; read-out: cKit percent inhibition.

The target in the next assay is T3, kinase domain of PDGFRβ (Homo sapiens, UniProt P09619).
T3 construct: The kinase domain of PDGFRβ was assayed in 50 mM Hepes; purchased Invitrogen P3082
Description: Inhibition of PDGFRb kinase signaling in an in vitro biochemical assay (alphascreen). To be noted: tested at about 1 μM; compounds of Table 3; read-out: PDGFRβ percent inhibition.

Assay [2] relates to MNFS60 (murine AML cells). Description: Cell viability assay in MCSF dependent MNFS60 cells (Cell Titer Glo). The format is cell-based. To be noted: Mus musculus, tested at about 1 μM; compounds of Table 3; read-out: M-NFS-60 CP percent inhibition. An outline of the steps:
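Compounds were serially diluted 3-fold in DMSO to 500× final and added to cells with MCSF at 10 ng/ml final. After 72 hrs at 37° C. under 5% CO2, viable cells were quantified by CellTiter-Glo luminescence; triplicate wells gave EC50 values by curve fitting.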
On the technique in general: ATP-based viability assays read luminescence as a measure of living cells.

T3 sequence (P09619 600-962 limits assumed): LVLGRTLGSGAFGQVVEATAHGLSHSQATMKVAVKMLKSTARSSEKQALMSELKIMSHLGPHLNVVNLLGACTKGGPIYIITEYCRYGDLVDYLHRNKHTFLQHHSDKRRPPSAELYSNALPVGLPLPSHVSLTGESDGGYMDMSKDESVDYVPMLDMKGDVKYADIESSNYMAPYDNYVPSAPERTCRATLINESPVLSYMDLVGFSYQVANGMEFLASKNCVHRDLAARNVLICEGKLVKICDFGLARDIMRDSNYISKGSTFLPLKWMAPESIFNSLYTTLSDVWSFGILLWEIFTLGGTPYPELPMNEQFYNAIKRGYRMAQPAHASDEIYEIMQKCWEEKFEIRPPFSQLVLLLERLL
T2 sequence (P10721 589-937 limits assumed): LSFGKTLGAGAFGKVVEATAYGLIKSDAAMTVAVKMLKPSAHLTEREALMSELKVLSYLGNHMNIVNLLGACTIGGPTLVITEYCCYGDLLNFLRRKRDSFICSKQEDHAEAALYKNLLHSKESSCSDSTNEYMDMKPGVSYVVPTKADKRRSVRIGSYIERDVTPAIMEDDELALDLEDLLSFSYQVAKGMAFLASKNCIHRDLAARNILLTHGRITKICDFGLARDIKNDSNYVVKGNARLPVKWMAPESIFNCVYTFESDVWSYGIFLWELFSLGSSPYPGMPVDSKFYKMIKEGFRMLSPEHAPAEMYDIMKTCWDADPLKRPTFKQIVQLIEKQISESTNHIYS

With `O[C@@H]1Cc2ccccc2[C@@H]1Nc1nc2ccc(Oc3ccnc4ccccc34)cc2s1` [Example 239, (1S,2R)-1-(6-(quinolin-4-yloxy)benzo[d]thiazol-2-ylamino)-2,3-dihydro-1H-inden-2-ol], the inhibition at 1 µM in assay [1] came to 100%; on kinase domain of cKIT, 100%; at kinase domain of PDGFRβ it was 25%; in assay [2] it was 90%.

For the compound `OC[C@H](Cc1ccccc1)Nc1nc2ccc(Oc3ccnc4ccccc34)cc2s1` [Example 242], the inhibition at 1 µM in assay [1] was determined as 100%; on kinase domain of cKIT, 97%; on kinase domain of PDGFRβ, 35%; in assay [2] it was 51%.

On to `C[C@@H](Nc1nc2ccc(Oc3ccnc4ccccc34)cc2s1)C1CCCCC1` [Example 243, (R)-N-(1-cyclohexylethyl)-6-(quinolin-4-yloxy)benzo[d]thiazol-2-amine], for which the inhibition at 1 µM in assay [1] turned out to be 100%; on kinase domain of cKIT, 100%; at kinase domain of PDGFRβ, 69%; in assay [2], 76%.

Regarding `FC(F)Oc1ccccc1CNc1nc2ccc(Oc3ccnc4ccccc34)cc2s1` [Example 246, N-(2-(difluoromethoxy)benzyl)-6-(quinolin-4-yloxy)benzo[d]thiazol-2-amine], the inhibition at 1 µM in assay [1] stood at 100%; at kinase domain of cKIT, 100%; at kinase domain of PDGFRβ it was 82%; in assay [2] it was 100%.

As for `c1ccc2c(Oc3ccc4nc(NC5CCCCCC5)sc4c3)ccnc2c1` [Example 247, N-cycloheptyl-6-(quinolin-4-yloxy)benzo[d]thiazol-2-amine], the inhibition at 1 µM in assay [1] was 100%; on kinase domain of cKIT, 100%; on kinase domain of PDGFRβ it was 80%; in assay [2], 100%.

For `c1ccc2c(c1)CCC[C@@H]2Nc1nc2ccc(Oc3ccnc4ccccc34)cc2s1` [Example 249, (S)-6-(quinolin-4-yloxy)-N-(1,2,3,4-tetrahydronaphthalen-1-yl)benzo[d]thiazol-2-amine], the inhibition at 1 µM was 100% in assay [1], 69% at kinase domain of cKIT, 0% at kinase domain of PDGFRβ and 100% in assay [2].

`OC[C@H](CC1CCCCC1)Nc1nc2ccc(Oc3ccnc4ccccc34)cc2s1` [Example 250]: the inhibition at 1 µM was 97% in assay [1], 98% at kinase domain of cKIT, 0% on kinase domain of PDGFRβ and 20% in assay [2].

Turning to `c1ccc2c(Oc3ccc4nc(NCCC5CCOCC5)sc4c3)ccnc2c1` [Example 252, 6-(quinolin-4-yloxy)-N-(2-(tetrahydro-2H-pyran-4-yl)ethyl)benzo[d]thiazol-2-amine], the inhibition at 1 µM in assay [1] stood at 100%; at kinase domain of cKIT it was 100%; at kinase domain of PDGFRβ it was 6%; in assay [2], 81%.

Regarding `CC(C)CCNc1nc2ccc(Oc3ccnc4ccccc34)cc2s1` [Example 253, N-isopentyl-6-(quinolin-4-yloxy)benzo[d]thiazol-2-amine], the inhibition at 1 µM in assay [1] is 100%; at kinase domain of cKIT, 100%; on kinase domain of PDGFRβ, 6%; in assay [2], 86%.

For `c1cncc(CNc2nc3ccc(Oc4ccnc5ccccc45)cc3s2)c1` [Example 254, N-(pyridin-3-ylmethyl)-6-(quinolin-4-yloxy)benzo[d]thiazol-2-amine], the inhibition at 1 µM in assay [1] was 100%; at kinase domain of cKIT, 98%; on kinase domain of PDGFRβ it was 0%; in assay [2] it was 100%.

For the compound `c1ccc2c(Oc3ccc4nc(NCCN5CCOCC5)sc4c3)ccnc2c1` [Example 255, N-(2-morpholinoethyl)-6-(quinolin-4-yloxy)benzo[d]thiazol-2-amine], the inhibition at 1 µM came out at 100% in assay [1], 92% at kinase domain of cKIT, 8% at kinase domain of PDGFRβ and 69% in assay [2].

With `COc1ccccc1CNc1nc2ccc(Oc3ccnc4ccccc34)cc2s1` [Example 257, N-(2-methoxybenzyl)-6-(quinolin-4-yloxy)benzo[d]thiazol-2-amine], the inhibition at 1 µM in assay [1] came out at 100%; at kinase domain of cKIT, 100%; at kinase domain of PDGFRβ, 11%; in assay [2], 100%.

As for `C[C@H](Nc1nc2ccc(Oc3ccnc(Cl)c3)cc2s1)C1CCCCC1` [Example 264, (S)-6-(2-chloropyridin-4-yloxy)-N-(1-cyclohexylethyl)benzo[d]thiazol-2-amine], the inhibition at 1 µM was determined as 97% in assay [1], 25% on kinase domain of cKIT, 4% at kinase domain of PDGFRβ and 3% in assay [2].

Turning to `Cn1nccc1-c1cc(Oc2ccc3nc(N[C@@H]4CCCC[C@H]4O)sc3c2)ccn1` [Example 265, (1R,2R)-2-(6-(2-(1-methyl-1H-pyrazol-5-yl)pyridin-4-yloxy)benzo[d]thiazol-2-ylamino)cyclohexanol], the inhibition at 1 µM in assay [1] is 100%; at kinase domain of cKIT, 9%; on kinase domain of PDGFRβ it was 12%; in assay [2], 32%.

Take `CCc1nc(-c2cc(Oc3ccc4nc(N[C@@H](C)C5CCCCC5)sc4c3)ccn2)[nH]c1CC` [Example 272, (S)-N-(1-cyclohexylethyl)-6-(2-(4,5-diethyl-1H-imidazol-2-yl)pyridin-4-yloxy)benzo[d]thiazol-2-amine]: the inhibition at 1 µM in assay [1] is 98%; on kinase domain of cKIT it was 24%; at kinase domain of PDGFRβ it was 7%; in assay [2] it was 38%.

Consider `C[C@H](Nc1nc2ccc(Oc3ccnc(-c4ccnn4C)c3)cc2s1)C1CCCCC1` [Example 277, (S)-N-(1-cyclohexylethyl)-6-(2-(1-methyl-1H-pyrazol-5-yl)pyridin-4-yloxy)benzo[d]thiazol-2-amine], for which the inhibition at 1 µM in assay [1] was 100%; on kinase domain of cKIT, 26%; on kinase domain of PDGFRβ, 5%; in assay [2], 24%.

On to `Nc1ncc(-c2cc(Oc3ccc4nc(N[C@@H]5CCCC[C@H]5O)sc4c3)ccn2)cc1C(F)(F)F` [Example 282, (1R,2R)-2-(6-(6'-amino-5'-(trifluoromethyl)-2,3'-bipyridin-4-yloxy)benzo[d]thiazol-2-ylamino)cyclohexanol], for which the inhibition at 1 µM in assay [1] is 99%; at kinase domain of cKIT it was 23%; on kinase domain of PDGFRβ it was 7%; in assay [2], 22%.

In the case of `Cc1nn(C)c(C)c1-c1cc(Oc2ccc3nc(N[C@@H]4CCCC[C@H]4O)sc3c2)ccn1` [Example 283, (1R,2R)-2-(6-(2-(1,3,5-trimethyl-1H-pyrazol-4-yl)pyridin-4-yloxy)benzo[d]thiazol-2-ylamino)cyclohexanol], the inhibition at 1 µM in assay [1] turned out to be 99%; on kinase domain of cKIT it was 38%; at kinase domain of PDGFRβ it was 20%; in assay [2] it was 0%.

Turning to `O[C@@H]1CCCC[C@H]1Nc1nc2ccc(Oc3ccnc(-c4cncnc4)c3)cc2s1` [Example 285, (1R,2R)-2-(6-(2-(pyrimidin-5-yl)pyridin-4-yloxy)benzo[d]thiazol-2-ylamino)cyclohexanol], the inhibition at 1 µM in assay [1] is 99%; at kinase domain of cKIT it was 33%; at kinase domain of PDGFRβ, 8%; in assay [2] it was 0%.

For `N#Cc1ccc(-c2cc(Oc3ccc4nc(N[C@@H]5CCCC[C@H]5O)sc4c3)ccn2)cn1` [Example 287, 4-(2-((1R,2R)-2-hydroxycyclohexylamino)benzo[d]thiazol-6-yloxy)-2,3'-bipyridine-6'-carbonitrile], the inhibition at 1 µM worked out at 100% in assay [1], 57% at kinase domain of cKIT, 20% at kinase domain of PDGFRβ and 35% in assay [2].

In the case of `O[C@@H]1CCCC[C@H]1Nc1nc2ccc(Oc3ccnc(-c4ccc(F)cc4)c3)cc2s1` [Example 288, (1R,2R)-2-(6-(2-(4-fluorophenyl)pyridin-4-yloxy)benzo[d]thiazol-2-ylamino)cyclohexanol], the inhibition at 1 µM in assay [1] was 100%; on kinase domain of cKIT it was 78%; on kinase domain of PDGFRβ it was 24%; in assay [2], 70%.

Consider `C[C@H](Nc1nc2ccc(Oc3ccnc(C(=O)NN(C)C)c3)cc2s1)C1CCCCC1` [Example 289, (S)-4-(2-(1-cyclohexylethylamino)benzo[d]thiazol-6-yloxy)-N',N'-dimethylpicolinohydrazide], for which the inhibition at 1 µM in assay [1] was determined as 99%; on kinase domain of cKIT, 28%; at kinase domain of PDGFRβ, 2%; in assay [2], 0%.
